Test system: SK-RC-52 xenografts
Assay: Biodistribution of [111In]XYIMSR-01 and [177Lu]XYIMSR-01
Type: in vivo, mice
Experimental: Cell Lines and Mouse Models. Animal experiments were performed in accordance with protocols approved by the Johns Hopkins Animal Care and Use Committee (ACUC). Six-week-old female NOD/SCID mice were purchased from the Animal Resource Core of the Sidney Kimmel Comprehensive Cancer Center of Johns Hopkins and were subcutaneously injected in the lower left flank or upper right flank with 1×10^6 SK-RC-52 cells in RPMI 1640 GlutaMAX™ media (Life Technologies, Frederick, Md.) supplemented with 1% fetal bovine serum (FBS). Mice were monitored for tumor size and used for SPECT/CT imaging when the size of the tumor reached 100 mm^3.
Biodistribution of [^111In]XYIMSR-01 and [^177Lu]XYIMSR-01. Mice bearing SK-RC-52 xenografts at lower left flank were injected intravenously with 740 kBq (20 μCi) of [^111In]XYIMSR-01, or [^177Lu]XYIMSR-01 in 200 μL of PBS. For competitive blocking, same tumor bearing mice were injected with 740 kBq (20 μCi) of [^111In]XYIMSR-01 and 200 nmole of 1 in 200 μL of PBS. At 1 h, 4 h, 8 h, 24 h and 48 h post-injection, mice were sacrificed by cervical dislocation and the blood was immediately collected by cardiac puncture. Heart, lungs, pancreas, spleen, fat, brain, muscle, small intestines, liver, stomach, kidney, urinary bladder, and tumor were collected. Each organ was weighed and the tissue radioactivity was measured with an automated gamma counter (1282 Compugamma CS, Pharmacia/LKBNuclear, Inc., Mt. Waverly, Vic. Australia). The percentage of injected dose per gram of tissue (% ID/g) was calculated by comparison with samples of a standard dilution of the initial dose. All measurements were corrected for radioactive decay.
Data were expressed as mean±standard deviation (SD). Prism software (GraphPAD, San Diego, Calif.) was used to determine statistical significance. Statistical significance was calculated using a paired t test. P-values […] were considered significant.

[1] = 24 hr + Block (200 nmole of 1 co-injected)

Structure (SMILES): CC(CCC(=O)N[C@@H](CC(=O)N[C@@H](CC(=O)N[C@@H](CCCCn1cc(CCCC(=O)Nc2nnc(S(N)(=O)=O)s2)nn1)C(=O)NCCOCCOCCNC(=O)CN1CCN(CC(=O)[O-])CCN(CC(=O)[O-])CCN(CC(=O)[O-])CC1)C(=O)O)C(=O)O)(c1ccc(O)cc1)c1ccc(O)cc1.[177Lu+3] [[^177Lu]XYIMSR-01]
- Biodistribution: Bladder (1 hr post-injection): 26.55 ± 11.08 % ID/g
- Biodistribution: Blood (1 hr post-injection): 0.55 ± 0.06 % ID/g
- Biodistribution: Brain (1 hr post-injection): 0.49 ± 0.08 % ID/g
- Biodistribution: Fat (1 hr post-injection): 1.07 ± 0.58 % ID/g
- Biodistribution: Heart (1 hr post-injection): 3.59 ± 0.73 % ID/g
- Biodistribution: Kidney (1 hr post-injection): 40.77 ± 6.68 % ID/g
- Biodistribution: Liver (1 hr post-injection): 4.15 ± 0.39 % ID/g
- Biodistribution: Lung (1 hr post-injection): 23.72 ± 6.49 % ID/g
- Biodistribution: Muscle (1 hr post-injection): 1.42 ± 0.40 % ID/g
- Biodistribution: Pancreas (1 hr post-injection): 2.03 ± 0.25 % ID/g
- Biodistribution: Small intestine (1 hr post-injection): 6.11 ± 0.68 % ID/g
- Biodistribution: Spleen (1 hr post-injection): 0.29 ± 0.07 % ID/g
- Biodistribution: Stomach (1 hr post-injection): 12.20 ± 1.66 % ID/g
- Biodistribution: Tumor (1 hr post-injection): 26.91 ± 6.06 % ID/g
- Tumor/Blood ratio (1 hr post-injection): 47.9 ± 13.4
- Tumor/Kidney ratio (1 hr post-injection): 0.6 ± 0.2
- Tumor/Muscle ratio (1 hr post-injection): 18.8 ± 5.0
- Biodistribution: Bladder (4 hr post-injection): 6.60 ± 3.66 % ID/g
- Biodistribution: Blood (4 hr post-injection): 0.18 ± 0.02 % ID/g
- Biodistribution: Brain (4 hr post-injection): 0.33 ± 0.04 % ID/g
- Biodistribution: Fat (4 hr post-injection): 0.56 ± 0.14 % ID/g
- Biodistribution: Heart (4 hr post-injection): 1.52 ± 0.54 % ID/g
- Biodistribution: Kidney (4 hr post-injection): 19.17 ± 2.82 % ID/g
- Biodistribution: Liver (4 hr post-injection): 1.79 ± 0.44 % ID/g
- Biodistribution: Lung (4 hr post-injection): 10.35 ± 1.86 % ID/g
- Biodistribution: Muscle (4 hr post-injection): 0.65 ± 0.19 % ID/g
- Biodistribution: Pancreas (4 hr post-injection): 0.99 ± 0.19 % ID/g
- Biodistribution: Small intestine (4 hr post-injection): 2.64 ± 0.17 % ID/g
- Biodistribution: Spleen (4 hr post-injection): 0.15 ± 0.03 % ID/g
- Biodistribution: Stomach (4 hr post-injection): 6.06 ± 1.57 % ID/g
- Biodistribution: Tumor (4 hr post-injection): 26.28 ± 4.25 % ID/g
- Tumor/Blood ratio (4 hr post-injection): 150.3 ± 34.6
- Tumor/Kidney ratio (4 hr post-injection): 1.4 ± 0.4
- Tumor/Muscle ratio (4 hr post-injection): 43.7 ± 16.8
- Biodistribution: Bladder (8 hr post-injection): 6.00 ± 3.52 % ID/g
- Biodistribution: Blood (8 hr post-injection): 0.16 ± 0.05 % ID/g
- Biodistribution: Brain (8 hr post-injection): 0.44 ± 0.08 % ID/g
- Biodistribution: Fat (8 hr post-injection): 0.46 ± 0.17 % ID/g
- Biodistribution: Heart (8 hr post-injection): 1.49 ± 0.59 % ID/g
- Biodistribution: Kidney (8 hr post-injection): 18.99 ± 6.14 % ID/g
- Biodistribution: Liver (8 hr post-injection): 1.87 ± 0.77 % ID/g
- Biodistribution: Lung (8 hr post-injection): 8.87 ± 3.30 % ID/g
- Biodistribution: Muscle (8 hr post-injection): 0.47 ± 0.18 % ID/g
- Biodistribution: Pancreas (8 hr post-injection): 1.03 ± 0.50 % ID/g
- Biodistribution: Small intestine (8 hr post-injection): 3.67 ± 0.93 % ID/g
- Biodistribution: Spleen (8 hr post-injection): 0.29 ± 0.05 % ID/g
- Biodistribution: Stomach (8 hr post-injection): 6.15 ± 2.65 % ID/g
- Biodistribution: Tumor (8 hr post-injection): 27.48 ± 4.32 % ID/g
- Tumor/Blood ratio (8 hr post-injection): 178.6 ± 36.6
- Tumor/Kidney ratio (8 hr post-injection): 1.5 ± 0.3
- Tumor/Muscle ratio (8 hr post-injection): 65.0 ± 19.0
- Biodistribution: Bladder [1]: 0.73 ± 0.55 % ID/g
- Biodistribution: Blood [1]: 0.04 ± 0.02 % ID/g
- Biodistribution: Brain [1]: 0.04 ± 0.01 % ID/g
- Biodistribution: Fat [1]: 0.03 ± 0.03 % ID/g
- Biodistribution: Heart [1]: 0.08 ± 0.04 % ID/g
- Biodistribution: Kidney [1]: 1.54 ± 1.44 % ID/g
- Biodistribution: Liver [1]: 0.46 ± 0.34 % ID/g
- Biodistribution: Lung [1]: 0.73 ± 0.58 % ID/g
- Biodistribution: Muscle [1]: 0.03 ± 0.01 % ID/g
- Biodistribution: Pancreas [1]: 0.05 ± 0.03 % ID/g

From patent publication US20190192699A1, “NUCLEAR IMAGING AND RADIOTHERAPEUTICS AGENTS TARGETING CARBONIC ANHYDRASE IX AND USES THEREOF” (THE JOHNS HOPKINS UNIVERSITY, priority 2016, published 2019)
